Our source for the AC50 and IC50 values is patent US20220306653A1, “MACROCYCLIC INHIBITORS OF MCL-1” (Janssen Pharmaceutica NV, priority 2019, published 2022).

Each structure is given as a SMILES string. Several values for one entry are separate records, joined by “and”; a condition that tells them apart may be missing. Identical values can stand only once.

Test [1] relates to MOLP-8 human multiple myeloma cell line. Description: MOLP8 Caspase-Glo 3/7 luminescent assay. The class given is cell-based. The conditions noted are these: 2 hours incubation; averaged values over all runs on all batches. The source says: MCL-1 is a regulator of apoptosis and is highly over-expressed in tumor cells that escape cell death. The assay evaluates the cellular potency of small-molecule compounds targeting regulators of the apoptosis pathway, primarily MCL-1, Bfl-1, Bcl-2, and other proteins of the Bcl-2 family. Protein-protein inhibitors disrupting the interaction of anti-apoptotic regulators with BH3-domain proteins initiate apoptosis.
The Caspase-Glo® 3/7 Assay is a luminescent assay that measures caspase-3 and -7 activities in purified enzyme preparations or cultures of adherent or suspension cells. The assay provides a proluminescent caspase-3/7 substrate, which contains the tetrapeptide sequence DEVD. This substrate is cleaved to release aminoluciferin, a substrate of luciferase used in the production of light. Addition of the single Caspase-Glo® 3/7 Reagent in an “add-mix-measure” format results in cell lysis, followed by caspase cleavage of the substrate and generation of a “glow-type” luminescent signal.
This assay uses the MOLP-8 human multiple myeloma cell line, which is sensitive to MCL-1 inhibition.
Cell cultures were maintained between 0.2 and 2.0×10^6 cells/mL. The cells were harvested by collection in 50 mL conical tubes. The cells were then pelleted at 500 g for 5 mins before removing supernatant and resuspension in fresh pre-warmed culture medium. The cells were counted and diluted as needed.
The assay reagent was prepared by transferring the buffer solution to the substrate vial and mixing. The solution may be stored for up to 1 week at 4° C. with negligible loss of signal.
Compounds were delivered in assay-ready plates (Proxiplate) and stored at −20° C.
Assays always include 1 reference compound plate containing reference compounds. The plates were spotted with 40 nL of compounds (0.5% DMSO final in cells; serial dilution; 30 μM highest conc. ⅓ dilution, 10 doses, duplicates). The compounds were used at room temperature and 4 μL of pre-warmed media was added to all wells except column 2 and 23. The negative control was prepared by adding 1% DMSO in media. The positive control was prepared by adding the appropriate positive control compound in final concentration of 60 μM in media. The plate was prepared by adding 4 μL negative control to column 23, 4 μL positive control to column 2 and 4 μL cell suspension to all wells in the plate. The plate with cells was then incubated at 37° C. for 2 hours. The assay signal reagent is the Caspase-Glo solution described above, and 8 μL was added to all wells. The plates were then sealed and measured after 30 minutes.
The activity of a test compound was calculated as percent change in apoptosis induction as follows:
LC=median of the Low Control values • =Central Reference in Screener • =DMSO • =0% ΠC=Median of the High Control values • =Scale Reference in Screener • =30 pM of positive control • =100% apoptosis induction
% Effect (AC50)=100−(sample−LC)/(HC−LC)*100
% Control=(sample/HC)*100
% Control min=(sample−LC)/(HC−LC)*100

Test [2] relates to Molp8 multiple myeloma cell line. Kind of test: Molp8 multiple myeloma cell line survival assay using Annexin V and 7AAD. The settings on record: live cell percent by Annexin V/7AAD flow cytometry, 3 days incubation; each independent run listed individually; read-out: MOLP8 Apoptosis IC50. It counts as cell-based, human. The source says:
Molp8 multiple myeloma cell line survival assay using Annexin V and 7AAD.
The Annexin V/7AAD principle is based on the location of phosphatidylserine in the plasma membrane and the integrity of the membrane barrier. During early apoptosis, phosphatidylserine loses its normal distribution patterns in the inner leaflet of the plasma membrane and appears on the exterior of the plasma membrane. Annexin proteins are calcium dependent phospholipid binding proteins and can bind phosphatidylserine on the outer membrane during cell death. The viability dye 7AAD is excluded from entering cells with intact plasma membranes but accumulates in cells that have lost membrane integrity. Annexin Fitc is excited by the 488 nm laser (max excitation: 490 nm, max emission: 525 nm) as is 7AAD (excitation: 488 nm, emission: 650 nm), which allows this assay to be completed on any multicolor flow cytometer.
The assay conditions were optimized using the following 1× reaction buffer: 5 mM HEPES (4-(2-hydroxyethyl)-1-piperazineethanesulfonic acid), 70 mM NaCl, 1.25 mM CaCl2, pH 7.4.
The Molp 8 cells were multiple myeloma, human, in suspension (*cells were counted 2× per week and culture density maintained between 0.5 and 1.5×10^6 cells per ml).
On Day 1, 5×10^4 live cells per well were plated in a 96-well U-bottom plate, with the cells plated in 100 uL RPMI+10% FBS. An 11-point compound dilution plate was prepared in 3-fold steps (Final concentration range 10 μM-0.1 nM) and added at a concentration of 1 μL per well. The plate was then incubated for 3 days at 37° C. and 5% CO2.
On Day 4, the cells were pelleted and the media discarded. The cells were then resuspended in 50 μL AnnexinV-Fitc (1:40 dilution) and 7AAD (1:100 dilution) in Annexin binding buffer, then incubated for 30 min @ room temperature in the dark. 50 μL binding buffer (100 uL total volume) was then added to the cells. There was no wash step required.
Within 2 hours, PeCy5 (7AAD) and Fitc (Annexin) channels were recorded using BD Canto, collecting a minimum per singlet of 10,000 events.
The activity of a test compound was calculated based on the live cell percentage. • LC=Median of the low control values • =Low control: cells without treatment (no greater than 100% live) • HC=Median of the high control values • =High control: cells treated with 10 uM drug (no less than 0% live)
A best-fit curve was fitted by a minimum sum of squares method to the plot of live cell percent vs. compound concentration. From this an IC50 value (inhibitory concentration causing 50% cytotoxicity) was obtained. An estimate of the slope of the plot in terms of the Hill coefficient was also obtained.
A general note: In flow cytometry, cells or beads pass a laser one at a time.

Regarding `Cc1c(C(=O)O)n2c3ccc(Cl)c(c13)-c1c(nn(C)c1C)CSCc1cc(n(C)n1)CSc1cc(c3ccccc3c1)OCCC2` (single isomer, unassigned) [Compound 1, 1^5-chloro-1^3,2^1,2^5,6^1-tetramethyl-1^1H,2^1H,6^1H-10-oxa-4,8-dithia-1(4,1)-indola-2(4,3),6(3,5)-dipyrazola-9(3,1)-naphthalenacyclotridecaphane-1^2-carboxylic acid], the AC50 (in general, the midpoint of the concentration-response curve, whichever way the signal moves) in test [1] was determined as 0.05 µM. For the same compound, in test [2], the 50% inhibitory concentration (IC50) (in general, the concentration that inhibits the measured activity by half) was 0.054 µM and 0.106 µM.

On to `Cc1c(C(=O)O)n2c3ccc(Cl)c(c13)-c1c(nn(C)c1C)CSCc1cc(n(C)n1)CSc1cc(c3ccccc3c1)OCCC2` (single isomer, unassigned) [Compound 2, 1^5-chloro-1^3,2^1,2^5,6^1-tetramethyl-1′H,2′H,6H-10-oxa-4,8-dithia-1(4,1)-indola-2(4,3),6(3,5)-dipyrazola-9(3,1)-naphthalenacyclotridecaphane-1^2-carboxylic acid], for which the AC50 in test [1] was found to be 10.3 µM. For the same compound, the 50% inhibitory concentration (IC50) in test [2] is 1.3 µM and 7.04 µM.
